Data published in ChEMBL document CHEMBL3992498, “Novel biguanide-based derivatives scouted as TAAR1 agonists: Synthesis, biological evaluation, ADME prediction and molecular docking studies” (Eur J Med Chem, 2017).
Calls of active or inactive are those of the source. The calls are words filed in the database; no cut-off is given here.

Columns and labels:
[1] = molecular target: T1, Trace amine-associated receptor 5 (Mus musculus, UniProt Q5QD14); assay: Agonist activity at mouse TAAR5 expressed in HEK293 cells assessed as cAMP accumulation after 20 mins by BRET assay; format: functional, cell-based
T1 sequence (Q5QD14 whole entry): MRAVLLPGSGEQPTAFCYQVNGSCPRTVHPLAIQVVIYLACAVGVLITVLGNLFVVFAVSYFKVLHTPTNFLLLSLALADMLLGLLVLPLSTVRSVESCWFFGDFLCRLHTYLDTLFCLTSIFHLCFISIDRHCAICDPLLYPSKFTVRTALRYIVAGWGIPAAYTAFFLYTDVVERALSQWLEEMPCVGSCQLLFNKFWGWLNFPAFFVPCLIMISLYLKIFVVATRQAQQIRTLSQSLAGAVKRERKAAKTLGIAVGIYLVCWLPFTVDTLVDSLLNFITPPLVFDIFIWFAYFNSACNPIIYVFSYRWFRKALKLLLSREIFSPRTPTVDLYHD

[2] = molecular target: Trace amine-associated receptor 1 (Mus musculus) (UniProt Q923Y8); assay: Agonist activity at mouse TAAR1 expressed in HEK293 cells assessed as cAMP accumulation at 10 uM after 20 mins by BRET assay relative to beta-PEA; format: functional, cell-based
Trace amine-associated receptor 1 (Mus musculus), sequence (Q923Y8 whole entry): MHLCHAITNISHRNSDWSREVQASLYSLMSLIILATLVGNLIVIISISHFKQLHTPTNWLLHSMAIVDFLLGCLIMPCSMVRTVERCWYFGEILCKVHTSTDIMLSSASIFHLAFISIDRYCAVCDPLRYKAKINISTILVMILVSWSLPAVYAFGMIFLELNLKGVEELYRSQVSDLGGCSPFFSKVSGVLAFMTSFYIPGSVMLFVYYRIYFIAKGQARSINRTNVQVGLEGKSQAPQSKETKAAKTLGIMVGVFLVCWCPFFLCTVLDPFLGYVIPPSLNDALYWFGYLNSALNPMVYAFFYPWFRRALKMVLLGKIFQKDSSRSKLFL

[3] = Selectivity ratio of EC50 for human TAAR1 expressed in HEK293 cells to EC50 for mouse TAAR1 expressed in HEK293 cells; format: cell-based
[4] = molecular target: Trace amine-associated receptor 1 (Mus musculus, UniProt Q923Y8); assay: Agonist activity at mouse TAAR1 expressed in HEK293 cells assessed as cAMP accumulation after 20 mins by BRET assay; format: functional, cell-based
Trace amine-associated receptor 1 (Mus musculus, UniProt Q923Y8), sequence (Q923Y8 whole entry): as above

[5] = molecular target: T2, Trace amine-associated receptor 1 (Homo sapiens, UniProt Q96RJ0); assay: Agonist activity at human TAAR1 expressed in HEK293 cells assessed as cAMP accumulation after 20 mins by BRET assay; format: functional, cell-based
T2 sequence (Q96RJ0 whole entry): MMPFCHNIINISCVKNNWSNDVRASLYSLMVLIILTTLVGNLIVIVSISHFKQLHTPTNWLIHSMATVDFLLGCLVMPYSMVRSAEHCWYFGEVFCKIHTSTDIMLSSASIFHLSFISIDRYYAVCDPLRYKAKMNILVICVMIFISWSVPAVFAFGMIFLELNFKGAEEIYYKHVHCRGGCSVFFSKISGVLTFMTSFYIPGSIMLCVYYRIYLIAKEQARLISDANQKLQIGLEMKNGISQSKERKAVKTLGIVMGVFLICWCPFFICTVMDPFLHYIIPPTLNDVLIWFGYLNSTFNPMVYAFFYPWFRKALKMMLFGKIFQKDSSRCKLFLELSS

[6] = molecular target: T3, Trace amine-associated receptor 1 (Homo sapiens) (UniProt Q96RJ0); assay: Agonist activity at human TAAR1 expressed in HEK293 cells assessed as cAMP accumulation at 10 uM after 20 mins by BRET assay relative to beta-PEA; format: functional, cell-based
T3 sequence (whole entry): T2 sequence (Q96RJ0 whole entry)

[7] = molecular target: T2, Trace amine-associated receptor 1; assay: […] of full length recombinant human N-terminal HA-tagged/C-terminal FLAG-tagged TAAR1 expressed in CHOK1 cells assessed as increase in cAMP accumulation by AlphaScreen assay; format: functional, cell-based

Compound	EC50 [1] [µM]	Emax [2] [%]	Ratio EC50 [3]	EC50 [4] [µM]	EC50 [5] [µM]	Emax [6] [%]	Activity [2]	Activity [6]	EC50 [7] [µM]
N=C(N)NC(=N)Nc1ccccc1Cl	> 10	> 85	2.44	0.41	1	> 85			
NC1=NC2(CCCCC2)N(c2ccc(Cl)cc2)C(N)=N1	> 10						inactive	inactive	
CC(C)NC(=N)NC(=N)Nc1ccc(Cl)cc1		> 85	> 1.85			> 85			
NC(N)=N/C(N)=N/C1CCCC1	> 10						inactive	inactive	
CCc1nc(N)nc(N)c1-c1ccc(Cl)cc1 [PYRIMETHAMINE]	> 10						inactive	inactive	
N=C(N)NC(=N)Nc1cccc(Cl)c1	> 10						inactive	inactive	
NC(N)=N/C(N)=N/Cc1ccc(Cl)c(Cl)c1	> 10	> 85	33.3	0.036	1.2	> 85			
NC(N)=N/C(N)=N/Cc1cccc(F)c1	> 10	> 85	2.96	0.54	1.6	> 85			
CC1(C)N=C(N)N=C(N)N1c1ccc(Cl)cc1 [CYCLOGUANIL]	> 10						inactive	inactive	
NCCc1ccc(Oc2ccc(O)cc2)c(I)c1									1.69
NC(N)=N/C(N)=N/Cc1ccc(Cl)cc1	> 10	> 85	2.31	0.78	1.8	> 85			
Cc1ccc(NC(=N)N=C(N)N)cc1	> 10	> 85	> 5.88	1.7	> 10	> 85			
N=C(N)NC(=N)N1CCOCC1							inactive	inactive	
NC(N)=N/C(N)=N/C1CCCCCC1	> 10						inactive	inactive	
COc1ccc(CNC(=N)NC(=N)N)cc1	> 10						inactive	inactive	
N=C(N)NC(=N)Nc1ccc(Cl)c(Cl)c1	> 10						inactive	inactive	
N=C(N)NC(=N)Nc1ccc(Cl)cc1 [4-CHLOROPHENYLBIGUANIDE]	> 10	> 85	> 4.76	2.1	> 10	> 85			
COc1ccc(/N=C(\N)N=C(N)N)cc1	> 10						inactive	inactive	
COc1cc(Cc2cnc(N)nc2N)cc(OC)c1OC [TRIMETHOPRIM]	> 10						inactive	inactive	
N=C(N)/N=C(\N)N1CCOCC1 [MOROXYDINE]	> 10								
NC(N)=N/C(N)=N/Cc1cccc(Cl)c1	> 10	> 85	72.2	0.097	7	> 85			
N=C(N)NC(=N)Nc1ccccc1 [PHENYL BIGUANIDE]	> 10						inactive	inactive	
NC(N)=N/C(N)=N/c1ccc([N+](=O)[O-])cc1	> 10						inactive	inactive	
NC(N)=N/C(N)=N/Cc1ccccc1Cl	> 10	> 85	7.31	0.41	3	> 85			
N=C(N)NC(=N)NCc1ccccc1	> 10	> 85	> 12.8	0.78	> 10	> 85			
NC(N)=N/C(N)=N/Cc1cccc(Br)c1	> 10	> 85	2.72	1.8	4.9	> 85			
[H]/N=C(\N/C(=N/[H])Nc1ccc(Cl)cc1)NC(C)C [PROGUANIL]	> 10			5.4	> 10				
NC(N)=N/C(N)=N/c1cccc(F)c1	> 10						inactive	inactive	
N=C(N)NC(=N)NC12CC3CC(CC(C3)C1)C2	> 10						inactive	inactive	
COc1ccc(C/N=C(\N)N=C(N)N)cc1OC	> 10						inactive	inactive	
